Experimental data published in US20220296108A1, “METHOD AND APPARATUS FOR QUANTITATION OF MICROCIRCULATION” (Seoul National University Hospital, priority 2019, published 2022).

Tests used:
CLP mouse model [1] = assay: Arterial blood gas analysis in CLP mouse model before and after abciximab; type: in vivo; conditions: post-Abc CLP mouse vs normal group (Sham)
Protocol: In addition, arterial blood gas analysis was performed to assess the oxygen partial pressure and carbon dioxide partial pressure in the arterial blood of the pre-Abc mouse model and the post-Abc mouse model. Specifically, a 1-mL syringe with a 22-gauge needle was coated with heparin and introduced into the left ventricle of the heart of the normal mouse model (Sham) (n=8), pre-Abc mouse model (Fc) (n=10) and post-Abc mouse model (Abc) (n=6). Then, about 200 μL of blood was sampled and analyzed with an i-STAT handheld blood analyzer (G3 cartridge, Abbott Point of Care Inc.). The mice were euthanized in a CO2 chamber right after the blood sampling.

CLP mouse model [2] = assay: Histological analysis of the number of sequestered neutrophils (Ly6G+ cells) in Mac-1-inhibited CLP mouse model; type: in vivo; conditions: vs CLP mouse model (Fc) and normal group (Sham), FIG. 28B
Excerpt: Specifically, lung tissues were harvested after intravital imaging of the mouse models. The tissues were perfused and fixed with 4% paraformaldehyde and then further fixed overnight in 4% paraformaldehyde. For H&E (hematoxylin and eosin) staining, the fixed tissues were processed using standard procedures, embedded in paraffin and then sliced into 4-μm sections, followed by conventional H&E staining.

CLP mouse model [3] = assay: Functional capillary ratio (FCR) by intravital lung imaging in Mac-1-inhibited CLP mouse model
Protocol: CLP model was performed by a single experienced operator according to a previously described method. Specifically, 75% of the cecum of the LysM^GFP/+ mouse was ligated with 6-0 black silk and single puncture with a dual hole in the distal cecum was made with a 21-gauge needle. After the puncture, the cecum was gently squeezed to confirm the patency of the puncture hole for extrusion of feces. The cecum was replaced to the abdominal cavity and the abdominal incision was closed with 4-0 black silk. A normal group (sham group) underwent the same surgical procedure except the cecal ligation and puncture. […]
Specifically, three continuous laser modules (488 nm (MLD488, Cobolt), 561 nm (Jive, Cobolt) and 640 nm (MLD640, Cobolt)) were utilized as excitation light sources for multi-color fluorescence imaging. […] The fluorescence signals emitted from the lung of the mouse model on a XYZ translational 3D stage (3DMS, Sutter Instrument) were epi-detected by the objective lenses. De-scanned three-color fluorescence signals were spectrally divided by diachronic beam splitters (DBS4; FF560-Di01, DBS5; FF649-Di01, Semrock) and then detected by a photomultiplier (PMT; R9110, Hamamatsu) through bandpass filters (BPF1; FF02-525/50, BPF2; FF01-600/37, BPF3; FF01-685/40, Semrock). […]

## abciximab
CLP mouse model [1]; FIG. 31A
  Oxygen partial pressure in arterial blood: comparable to that of the normal group
CLP mouse model [1]; FIG. 31B
  Carbon dioxide partial pressure in arterial blood: comparable to that of the normal group
CLP mouse model [2]
  Number of sequestered neutrophils (Ly6G+ cells): recovered to a level comparable to that of the normal group
CLP mouse model [3]; CLP mouse imaged 6 hours after CLP (pre-Abc), then 30 minutes after abciximab (post-Abc)
  Functional capillary ratio (FCR) increase after vs before abciximab administration: ≥ 2 times
CLP mouse model [3]; CLP mouse, vs CLP mouse model (Fc), FIG. 27
  Dead space and functional capillaries in pulmonary microcirculation imaging: dead space was decreased
